Test results from article PMC11230938 (2024).

Key:
[1] = tested on: OTC2 (DNA, aptamer) GACGACGCAATGTCCTTCGCAGGATCCGTTTACGGTGTCGTC; test: ITC; settings: 50 mM NaCl, 2 mM MgCl2; 10 mM MES pH 6.0, 25 °C; 9 μM aptamer, 150 μM OTC
[2] = tested on: OTC8 (DNA, aptamer) GACGACGGGCAAGATCTATTCTTCACGTTCACCTTTGTCGTC; test: intrinsic fluorescence titration of OTC; settings: 50 mM NaCl, 2 mM MgCl2; 10 mM MES pH 6.0; 100 nM OTC; 1 min equilibration
[3] = tested on: OTC43 (DNA, aptamer) GACGACTGGACCCTTCTGTGGTAGATTCTATCTAATGTCGTC; test: intrinsic fluorescence titration of OTC; settings: 50 mM NaCl, 2 mM MgCl2; 10 mM MES pH 6.0; 100 nM OTC; 1 min equilibration
[4] = tested on: OTC43 (DNA, aptamer) GACGACTGGACCCTTCTGTGGTAGATTCTATCTAATGTCGTC; test: ITC; settings: 50 mM NaCl, 2 mM MgCl2; 10 mM MES pH 6.0, 25 °C; 9 μM aptamer, 150 μM OTC
[5] = tested on: OTC26 (DNA, aptamer) GACGACATAGCTTGCTACCACTCGTCTCCGTAGTGGCAGTCGTC; test: intrinsic fluorescence titration of OTC; settings: 50 mM NaCl, 2 mM MgCl2; 10 mM MES pH 6.0; 100 nM OTC; 1 min equilibration
[6] = tested on: OTC23 (DNA, aptamer) GACGACGTGCTATTGCCTCAGTCATTCTCTGAGTCGTCGTC; test: intrinsic fluorescence titration of OTC; settings: 50 mM NaCl, 2 mM MgCl2; 10 mM MES pH 6.0; 100 nM OTC; 1 min equilibration
[7] = tested on: OTC2 (DNA, aptamer) GACGACGCAATGTCCTTCGCAGGATCCGTTTACGGTGTCGTC; test: intrinsic fluorescence titration of OTC; settings: 50 mM NaCl, 2 mM MgCl2; 10 mM MES pH 6.0; 100 nM OTC; 12 min equilibration per addition (0.57 μM after 1 min)
[8] = tested on: OTC34 (DNA, aptamer) GACGACGCAGTCTGATTTCAGCCATAGTTTTACTGCGTCGTC; test: intrinsic fluorescence titration of OTC; settings: 50 mM NaCl, 2 mM MgCl2; 10 mM MES pH 6.0; 100 nM OTC; 1 min equilibration
[9] = tested on: OTC22 (DNA, aptamer) GACGACAAAGCGTCTTACGTGCATACTTTTGTTGTCGTC; test: intrinsic fluorescence titration of OTC; settings: 50 mM NaCl, 2 mM MgCl2; 10 mM MES pH 6.0; 100 nM OTC; 1 min equilibration
[10] = tested on: OTC11 (DNA, aptamer) GACGACGCAGACATCTTGTGTGTCATAGCGCGCTACGTCGTC; test: intrinsic fluorescence titration of OTC; settings: 50 mM NaCl, 2 mM MgCl2; 10 mM MES pH 6.0; 100 nM OTC; 1 min equilibration
[11] = tested on: OTC22 (DNA, aptamer) GACGACAAAGCGTCTTACGTGCATACTTTTGTTGTCGTC; test: ITC; settings: 50 mM NaCl, 2 mM MgCl2; 10 mM MES pH 6.0, 25 °C; 9 μM aptamer, 150 μM OTC

Kd [1]: 62 ± 20 nM
Kd [2]: 200 nM
Kd [3]: 690 nM
Kd [4]: 1600 ± 570 nM
Kd [5]: 590 nM
Kd [6]: 360 nM
Kd [7]: 81 nM
Kd [8]: 530 nM
Kd [9]: 290 nM
Kd [10]: 320 nM
Kd [11]: 490 ± 110 nM
Compound: CN(C)[C@@H]1C(=O)C(C(N)=O)=C(O)[C@@]2(O)C(=O)C3=C(O)c4c(O)cccc4[C@@](C)(O)[C@H]3[C@H](O)[C@@H]12
